From patent US4162325A, “N-substituted lactams” (UCB, Societe Anonyme, priority 1976, dated 1979) come the findings set out here.

Series [1] concerns papillary muscle isolated from the rabbit heart. As to the kind of experiment: cardiac activity on isolated papillary muscle of rabbit heart. Conditions: for activation at 100 µg/mL / activation at 10 µg/mL: Oryctolagus cuniculus, read-out: percentage increase of the tension measured. The source says: This has been shown by the method employing the papillary muscle isolated from the rabbit heart, according to the method of H. G. Schoepke and F. E. Shiddeman, J. Pharmacol. Exptl. Therap. 133,(1961), 171.
The reactivity of various compounds of general formula (I) after each experiment is checked against theophylline. Table IV gives some of the results observed, expressed as a percentage increase of the tension measured.

Series [2] has as its system rats. The experiment in a line: active avoidance test, memory retention (paw pressure withdrawal) in rats. Format: in vivo, rat. As to conditions: for minimal effective dose: Rattus norvegicus, sc, 24 h, read-out: Active dose (minimum dose which reduces the stimulus to below 11 graduations); for activity compared with piracetam in the active avoidance test: rat, subcutaneous. The text has this: (A) The action on mnemic processes is first shown by the ability of the compounds to improve a type of memory retention in rats. The principle of the active avoidance test (see M. GREINDL and S. PREAT, Arch. Int. Pharmacodyn. Therap. 223,(1976),(1),168-171) developed in our laboratories and used for this purpose may be described as follows: the reaction of withdrawal of a rat's paw when subjected to an increasing and measured pressure is observed. The pressure at which the withdrawal reaction takes place is called the reaction threshold. This threshold is expressed by the number of graduations of the scale of the apparatus used (Analgesy meter UGO BASILE - Milano) and thus corresponds to the minimum pressure which brings about withdrawal when applied to the animal's paw. It is read directly from the scale of the apparatus used.
Inversely, animals treated with a substance having a positive effect on the mnemic processes (for example, piracetam) show a significant degree of retention: the stimulus at which the rats react by a reflex of avoidance is statistically lower than that of the control animals. A minimum of 20 rats are used per test (10 treated rats and 10 control rats) and the active dose is defined as the minimum dose which reduces the stimulus to below 11 graduations.
Subcutaneous administration of compounds of general formula (I), namely compounds A, G, H, I, J, K, L, N, O, P, Q, R, V, W, give, under these conditions, the effects indicated in Table I below.

The test system of series [3] is mice. As to the kind of experiment: protection against aggressions of the hypoxic type (lethality induced by oxydipentonium chloride) in mice. It counts as in vivo. As to conditions: 1 h, mouse, intraperitoneal, one hour before curarizer, read-out: Proportion of survivors, treated animals; for responders at 100 µM, 100 µmol/kg: 0.1 mM/kg (F 24, G 25.5, H 24, I 30, J 21, K 23, L 23 mg/kg), control 1/10, F 0/10; for responders at 320 µM, 320 µmol/kg: 0.32 mM/kg (A 64, I 95, J 68, Piracetam 45 mg/kg), control 1/10, Piracetam 0/10. Here is the method: Protection against aggressions of the hypoxic type is shown by a reduction of the lethality induced by a curarizer, the duration of action of which is short, namely oxydipentonium chloride (Brevatonal). At the doses used, this curarizer brings about a respiratory depression which, in turn, brings about a hypoxi-hypercapnic syndrome. A compound capable of protecting the brain during this brief period of hypoxia ensures survival. The compounds are administered to groups of 10 mice one hour before the injection of the curarizer; in a parallel test, a control group of 10 mice are given physiological salt solution before the curarizer. This test has also been developed in our laboratories (see, for the principle of this test, S. LEVIS et al.; Arch. Int. Pharmacodyn. Therap, 93,(1953),1,46-54).
Intraperitoneal administration of compounds of general formula (I), namely, products A, B, F, G, H, I, J, K, L, gives the results shown in Table III: […]

Series [4] is described as follows: toxicity, LD50 in rat. Conditions: in vivo. The text has this:
The tested compounds have a remarkably low toxicity. Table V gives the toxicities, after intravenous administration, of some of the compounds of the present invention: […]

Where “and” joins values, the source holds several entries; their conditions need not be identical. Equal entries are not always repeated. Where two headings read alike, the source gives them in different places.

As to `CN(CC(=O)Nc1ccccc1)C(=O)CN1CCCC1=O` [Compound E, 2-(N-Methyl-2-oxo-1-pyrrolidineacetamido)-N-phenylacetamide], in series [1], the activation at 100 µg/mL worked out at 22%.

Consider `CC(C(=O)NCC(N)=O)N1C(=O)CCC1(C)C` (stereo not drawn) [Compound H, 2-(alpha,5,5-trimethyl-2-oxo-1-pyrrolidineacetamido)-acetamide], for which, in series [2], the minimal effective dose was 0.0024 mg/kg and 0.01 µmol/kg; the “activity compared with piracetam in the active avoidance test” value (“activity compared with piracetam” below) was “superior to that of piracetam”. In addition, the responders at 10 µM, 10 µmol/kg in series [3] (0.01 mM/kg (B 2.6, G 2.6, H 2.4 mg/kg), control B 1/10, G 1/10, H 2/10) worked out at 60%. Also, in series [3], the responders at 100 µM, 100 µmol/kg is 100%. For the same compound, the activation at 10 µg/mL in series [1] worked out at 10%. The action against anoxia entry in series [1] (same test (isolated papillary muscle, rabbit heart)) is on record as “protective action against anoxia”. Also, the LD50 (in general, the dose at which mortality reaches 50%) in series [4] (intravenous) was > 3100 µmol/kg and > 747 mg/kg.

For `CCCNC(=O)CNC(=O)C(CC)N1C(=O)CCC1(C)C` (stereo not drawn) [Compound I, 2-(alpha-ethyl-5,5-dimethyl-2-oxo-1-pyrrolidineacetamido)-N-propylacetamide], in series [2], the minimal effective dose was 5.94 mg/kg and 20 µmol/kg; the “activity compared with piracetam” value was “superior to that of piracetam”. Moreover, in series [3], the responders at 100 µM, 100 µmol/kg worked out at 50% and the responders at 320 µM, 320 µmol/kg stood at 80%. For the same compound, the LD50 in series [4] (ip, intraperitoneal) is > 2500 µmol/kg and > 743 mg/kg.

`CC(C(=O)NCC(N)=O)N1CCCC1=O` (stereo not drawn) [Compound J, 2-(alpha-methyl-2-oxo-1-pyrrolidineacetamido)-acetamide]: in series [2], the minimal effective dose is 0.21 mg/kg and 1 µmol/kg; the “activity compared with piracetam” value is “superior to that of piracetam”. Moreover, in series [3], the responders at 100 µM, 100 µmol/kg was 60% and the responders at 320 µM, 320 µmol/kg amounted to 100%. In addition, the LD50 in series [4] (intravenous) is > 2600 µmol/kg and > 554 mg/kg.

For the compound `CCC(C(=O)NCC(N)=O)N1CCCC1=O` (stereo not drawn) [Compound K, 2-(alpha-ethyl-2-oxo-1-pyrrolidineacetamido)-acetamide], in series [2], the minimal effective dose was 4.54 mg/kg and 20 µmol/kg; the “activity compared with piracetam” value is “superior to that of piracetam”. The responders at 100 µM, 100 µmol/kg in series [3] was 70%. Besides, the activation at 100 µg/mL in series [1] came to 44%. Also, the LD50 in series [4] (intravenous) is > 2500 µmol/kg and > 568 mg/kg.

Consider `CN(C)C(=O)CNC(=O)CN1CCCC1=O` [Compound M, N,N-ddimethyl-2-(2-oxo-1-pyrrolidineacetamido)-acetamide], for which, in series [1], the activation at 10 µg/mL worked out at 10%.

In the case of `CCCCC1CCN(CC(=O)NCC(N)=O)C1=O` (centres unmarked) [Compound X, 2-(3-n-butyl-2-oxo-1-pyrrolidineacetamido)-acetamide], the activation at 100 µg/mL in series [1] was 25%.

Consider `Cn1c(=O)c2[nH]cnc2n(C)c1=O` [Theophylline, reference compound], for which, in series [1] (100 μg/ml), the activation at 100 µg/mL is 38%.
